# Results from ChEMBL document CHEMBL3217427, “Identification of 3-aminothieno[2,3-b]pyridine-2-carboxamides and 4-aminobenzothieno[3,2-d]pyrimidines as LIMK1 inhibitors” (Medchemcomm, 2011).
# Biological target: T1, LIM domain kinase 1 (Homo sapiens, UniProt P53667)
# Assay: Inhibition of LIMK1 (unknown origin) using cofilin-2 as substrate after 60 mins by Kinase-Glo assay
# Target sequence in this assay (P53667 whole entry, the tested form may be a part): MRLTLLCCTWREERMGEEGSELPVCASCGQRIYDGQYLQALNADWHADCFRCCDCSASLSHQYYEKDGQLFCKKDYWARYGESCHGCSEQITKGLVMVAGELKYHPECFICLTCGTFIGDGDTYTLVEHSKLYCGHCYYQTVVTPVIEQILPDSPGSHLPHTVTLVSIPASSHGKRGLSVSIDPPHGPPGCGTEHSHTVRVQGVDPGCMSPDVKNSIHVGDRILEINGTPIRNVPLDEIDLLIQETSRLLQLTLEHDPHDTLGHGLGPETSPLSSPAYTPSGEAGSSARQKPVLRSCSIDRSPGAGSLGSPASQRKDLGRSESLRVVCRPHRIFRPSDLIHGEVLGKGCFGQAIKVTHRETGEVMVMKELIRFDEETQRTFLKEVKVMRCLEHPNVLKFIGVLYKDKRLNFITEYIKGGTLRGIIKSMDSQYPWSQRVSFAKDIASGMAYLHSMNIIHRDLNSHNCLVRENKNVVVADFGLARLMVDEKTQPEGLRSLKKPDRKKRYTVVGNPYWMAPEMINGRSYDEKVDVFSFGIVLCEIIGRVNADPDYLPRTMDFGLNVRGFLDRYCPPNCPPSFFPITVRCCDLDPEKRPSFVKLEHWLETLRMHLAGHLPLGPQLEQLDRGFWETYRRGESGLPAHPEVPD
row,SMILES,IC50 [µM]
1,COc1ccc(-c2cc(-c3ccccc3)nc3sc(C(N)=O)c(N)c23)cc1,44
2,NC(=O)c1sc2ccccc2c1O,> 100
3,NC(=O)c1oc2ccccc2c1N,> 100
4,Cc1ccc2c(N)c(C(N)=O)sc2n1,56
5,NC(=O)c1sc2cccnc2c1N,92
6,NC(=O)c1sc2nc(Cc3ccccc3)cc(C(F)(F)F)c2c1N,30
7,NC(=O)c1sc2nc(-c3cccnc3)ccc2c1N,7.1
8,NC(=O)c1sc2nc(-c3ccccc3)cc(-c3ccco3)c2c1N,2
9,Cc1nc(N)c2sc3ncccc3c2n1,43
10,NNC(=O)c1sc2ncccc2c1N,> 100
11,CNC(=O)c1sc2ncccc2c1N,> 100
12,Nc1nc(-c2ccccc2)nc2c1sc1ncccc12,> 50
13,Nc1c(C(=O)O)sc2ccccc12,> 100
14,NC(=O)c1sc2nc(-c3ccccc3)ccc2c1N,3
15,NC(=O)c1cc2ccccc2s1,> 100
16,Nc1ncnc2c1oc1ccccc12,15
17,Cc1cc(C)c2c(N)c(C(N)=O)sc2n1,9

row,SMILES,IC50 [µM]
1,CN(C)C(=O)c1sc2ncccc2c1N,> 100
2,NC(=O)c1sc2nc(-c3ccccc3)c3c(c2c1N)CCCC3,2.8
3,Nc1ncnc2c1sc1nccnc12,> 100
4,Nc1c(C(=O)O)sc2ncccc12,> 100
5,CNc1c(C(N)=O)sc2ccccc12,34
6,Nc1ncnc2c1sc1ccc(-c3ccccc3)cc12,5.7
7,Nc1ncnc2c1sc1nc(-c3ccccc3)ccc12,0.7
8,Cc1ccc(-c2cc(C(F)(F)F)c3c(N)c(C(N)=O)sc3n2)o1,41
9,Nc1ncnc2c1sc1cccnc12,43
10,Nc1ncnc2c1sc1c(-c3ccccc3)cccc12,6.1
11,Nc1ncnc2c1sc1cccc(-c3ccccc3)c12,5.5
12,Nc1ncnc2c1[nH]c1ccccc12,4
13,Cc1cc(-c2ccc(Cl)cc2)c2c(N)c(C(N)=O)sc2n1,37
14,Cc1ccnc2sc(C(N)=O)c(N)c12,11
15,NC(=O)c1sc2nc(-c3cccs3)cc(C(F)(F)F)c2c1N,1.6
16,CCOC(=O)c1sc2ccccc2c1N,> 100
17,NC(=O)c1sc2nc(-c3ccc4c(c3)OCCO4)cc(C(F)(F)F)c2c1N,1.3

# Biological target: T1, LIM domain kinase 1
# Assay: Inhibition of LIMK1 (unknown origin) using cofilin-2 as substrate at 30 uM after 60 mins by Kinase-Glo assay relative to control
# Target sequence in this assay (P53667 whole entry, looked up, the tested form may be a part): as the sequence (P53667 whole entry, the tested form may be a part) above
row,SMILES,inhibition [%]
1,Nc1c(C(=O)NC2CCCCC2)sc2ncccc12,2
2,NC(=O)c1sc2nccc(Nc3ccccc3)c2c1N,98
3,NC(=O)c1sc2ncccc2c1N,40
4,NC(=O)c1sc2nc3c(c(-c4cccs4)c2c1N)CCC3,50
5,CN(C)c1ccnc2sc(C(N)=O)c(N)c12,67
6,Nc1c(C(=O)N2CCOCC2)sc2ncccc12,0
7,NC(=O)c1sc2ncc3c(c2c1N)CCCC3,16
8,Nc1c(C(=O)Nc2ccccc2)sc2nccc(Nc3ccccc3)c12,0
9,Nc1c(C(=O)Nc2ccccc2)sc2ncccc12,15
10,Cc1ccnc2sc(C(N)=O)c(N)c12,79
